Assay results from patent US11952586B2, “B-cell cultivation method” (Hoffmann-La Roche Inc., priority 2017, dated 2024).

Tests used:
[1] = system: single deposited B-cells; assay: co-cultivation of single deposited B-cells with EL-4 B5 feeder cells; IgG in supernatant by ELISA; type: cell-based, rabbit; conditions: addition of PAP-1 to the co-cultivation
Protocol: Single cell sorted B-cells were cultured in 96-well plates with 200 μl/well EL-4 B5 medium with Pansorbin Cells (SAC) (Calbiochem (Merck), Darmstadt, Deutschland), EL-4 B5 cells (0-5×10^4/well) and rabbit thymocyte supernatant or cytokine mix, respectively, for 7 days at 37° C. in an atmosphere of 5% CO2 in the incubator. B-cell culture supernatants were removed for screening and the cells harvested immediately for variable region gene cloning or frozen at −80° C. in 100 μl RLT buffer (Qiagen, Hilden, Germany).
A mixture of 0.5 μg/ml of biotinylated mouse anti-rabbit IgG antibody (Sigma-Aldrich) and 0.35 μg/ml anti-rabbit IgG HRP conjugate (Sigma-Aldrich) was transferred to 384 well streptavidin coated microtiter plates (MicroCoat Biotechnologie GmbH). Dilutions of B-cell supernatants in PBS supplemented with 0.5% BSA and 0.05% Tween®-20 were added and incubated for 90 min at RT. After repeated washing (6×) with PBST (phosphate buffered saline with 0.2% Tween buffer the plates were developed with BM Blue® HRP substrate solution and color formation was measured by absorbance at 370 nm. A commercial rabbit IgG (Sigma-Aldrich) was used as a calibration standard.

[2] = system: hamster B-cells; assay: co-cultivation of hamster B-cells with feeder mix additives; type: cell-based
Protocol: (§1) Thus, in one embodiment of all methods as reported herein the feeder mix for the co-cultivation of murine- or hamster-B-cells comprises IL-4.
(§2) Thus, in one embodiment of all methods as reported herein the feeder mix for the co-cultivation of murine-B-cells or hamster-B-cells comprises IL-6. In one embodiment the IL-6 is added at a concentration of 50 ng/ml. In one embodiment IL-6 is added at a concentration of 10 ng/ml, if high IgG-concentration is required. In one embodiment the addition of IL-6 is after three days of co-cultivation of the selected B-cells and EL-4 B5 cells.

[3] = system: murine B-cells; assay: co-cultivation of murine B-cells with feeder mix additives; type: cell-based
Protocol: as §1, §2

With `O=c1ccc2c(OCCCCOc3ccccc3)c3ccoc3cc2o1` [PAP-1, 5-(4-phenoxybutoxy) psoralene] the “number of B-cell clones” value [1] was “without decreasing the number of B-cell clones” and the “rbIgG secretion of B-cells” value [1] was “increases the rbIgG secretion of B-cells in a concentration dependent manner”.

“IL-6: interleukin-6, cytokine added to the feeder mix” was tested, and the IgG-concentration ([2]; addition of IL-6 to the feeder mix, hamster-B-cells) was “increased IgG-concentration” and the “number of IgG+-wells/cell clones” value ([3]; addition of IL-6 to the feeder mix, murine-B-cells) was “increased number of IgG^+-wells/cell clones”.

B1: IL-4: interleukin-4, cytokine added to the feeder mix (protein, UniProt P05112 25-153, looked up)
Interleukin-4: HKCDITLQEIIKTLNSLTEQKTLCTELTVTDIFAASKNTTEKETFCRAATVLRQFYSHHEKDTRCLGATAQQFHRHKQLIRFLKRLDRNLWGLAGLNSCPVKEANQSTLENFLERLKTIMREKYSKCSS
With B1 the “number of IgG+-wells/cell clones and IgG-concentration in the supernatant” value ([2]; addition of IL-4 to the feeder mix, hamster B-cells) was “increases the number of IgG^+-wells/cell clones as well as the IgG-concentration in the supernatant” and the “number of IgG+-wells/cell clones and IgG-concentration in the supernatant” value ([3]; addition of IL-4 to the feeder mix, murine B-cells) was “increases the number of IgG^+-wells/cell clones as well as the IgG-concentration in the supernatant”.
